ChEMBL document CHEMBL1201862, “PubChem BioAssay data set” (2004)
Values joined by “and” are separate entries in the source; they are usually repeats but may differ in a detail not shown here. Equal entries are not always repeated. Structures can show the parent of a compound that is named as a salt. Active and inactive are the calls of the source.

Tests used:
[1] = miR-122 activators in hepatoma reporter cells, dose response, cell-based, Huh7 psiCHECK-miR122, Renilla luciferase, cherry-picked (AID 651956); format: functional;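 note: huh7 hepatoma cells stably carrying a psiCHECK-2 miR-122 sensor plasmid; renilla luciferase signal reporting endogenous miR-122 activity after 48 h compound exposure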
[2] = HepG2 cell cytotoxicity, dose response, cytotoxicity control, cherry-picks, set 5 (AID 1053118); format: functional, cell-based
[3] = HEK293T cytotoxicity, dose response, cytotoxicity control for miR-122 modulator project, cell-based, activator set, cherry-pick (AID 720690); format: functional;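 note: HEK293T human cells scored for general mammalian cytotoxicity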
[4] = HEK293 cell cytotoxicity, dose response, cytotoxicity control, cherry-picks, set 5 (AID 1053117); format: functional, cell-based
[5] = inhibitors of fibronectin matrix deposition, dose response, AH1F cells, Alexa488-FN fluorescence, cherry-picks (AID 1035475); format: functional, cell-based
[6] = molecular target: T1, Oxysterols receptor LXR-beta (Homo sapiens, UniProt P55055); format: functional, cell-based;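 note: agonist activity at LXR measured by a cell-based luminescence readout across a dose range, run as a counterscreen for daf-12 agonists; HEK293 cells with Gal4-LXR fusion and GAL4-driven luciferase reporter; potency for activation of Gal4-LXR reporter so compounds are agonists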
T1 sequence (P55055 whole entry): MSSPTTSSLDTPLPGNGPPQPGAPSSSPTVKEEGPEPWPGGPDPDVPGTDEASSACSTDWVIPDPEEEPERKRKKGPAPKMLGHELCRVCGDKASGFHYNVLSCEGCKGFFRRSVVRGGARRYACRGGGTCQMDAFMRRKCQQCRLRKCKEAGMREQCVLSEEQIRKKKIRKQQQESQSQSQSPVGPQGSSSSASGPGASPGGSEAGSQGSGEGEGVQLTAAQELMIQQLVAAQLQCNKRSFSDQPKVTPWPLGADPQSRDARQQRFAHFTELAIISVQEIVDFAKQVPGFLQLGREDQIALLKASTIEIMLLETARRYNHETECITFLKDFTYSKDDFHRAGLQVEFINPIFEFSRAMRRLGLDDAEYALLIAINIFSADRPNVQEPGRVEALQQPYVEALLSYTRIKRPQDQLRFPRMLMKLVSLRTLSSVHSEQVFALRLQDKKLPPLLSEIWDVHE

[7] = molecular target: Potassium channel subfamily K member 3 (Homo sapiens, UniProt O14649); experiment: TASK1 (KCNK3) potassium channel inhibitors, SAR follow-up, CHO cells, FluxOR thallium flux (AID 652212); format: functional
[8] = A cytotoxicity screen of small molecule inhibitors of the PhoP region in Salmonella typhi identified in the primary screen. [Related pubchem assays: 1850, 1864, 1985 ]; format: functional
[9] = molecular target: Acyl-protein thioesterase 1 (Homo sapiens, UniProt O75608); experiment: Late stage assay provider results from the probe development effort to identify selective inhibitors of LYPLA1: fluorescence-based biochemical dose-response assay.
HEK293 = experiment: HEK293T cell cytotoxicity, dose response, cytotoxicity control, ATP luminescence, cherry-pick samples (AID 687005); format: functional, cell-based; conditions: Homo sapiens;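 note: cells exposed to compound for 48 hours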
[10] = HEK293 Cytotoxicity Assay Measured in Cell-Based System Using Plate Reader - 7071-01_Inhibitor_Dose_CherryPick_Activity_Set2.; format: functional
cells = conditions: A549
[11] = A549 cell cytotoxicity, dose response, cytotoxicity control, cherry-picks, 26 µM top dose (AID 1053119); format: functional, cell-based
[12] = Shn3 3'UTR reporter inhibitors, dose response, cell-based, Clone20 osteoblasts, firefly luciferase, cherry-picked (AID 624132); format: functional;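 note: firefly luciferase luminescence from reporter carrying the Shn3 3'UTR in osteoblasts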
[13] = HepG2 cell cytotoxicity, dose response, cytotoxicity control for Shn3 inhibitor project, CellTiter-Glo, cherry-picked (AID 624134); format: functional, cell-based
[14] = control 3'UTR Renilla luciferase suppression, dose response, counter-screen for Shn3 inhibitor project, cell-based, Clone20-Shn3RL, cherry-picked (AID 624133); format: functional
[15] = molecular target: Matrix metalloproteinase-14 (Homo sapiens, UniProt P50281); experiment: Dose Response confirmation of uHTS hits for a small molecule inhibitors of MT1-MMP activation in a fluorescence assay set 1.; format: functional
[16] = reduction of Shn3 3'UTR firefly luciferase signal, dose response, Schnurri-3 inhibitor project, cell-based, Clone20 osteoblasts, cherry-pick, set 2 (AID 720490); format: functional;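 note: actives lower the luminescence signal as inhibitors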
[17] = molecular target: 1-phosphatidylinositol 4,5-bisphosphate phosphodiesterase gamma-1 (Homo sapiens, UniProt P19174); experiment: Counterscreen for inhibitors of phospholipase C isozymes (PLC-B3): Fluorescence-based biochemical high throughput dose response assay to identify inhibitors of phospholipase C isozymes (PLC-gamma1).
[18] = molecular target: 1-phosphatidylinositol 4,5-bisphosphate phosphodiesterase beta-3 (Homo sapiens, UniProt Q01970); experiment: Fluorescence-based biochemical high throughput dose response assay to identify inhibitors of phospholipase C isozymes (PLC-B3).
[19] = molecular target: T2, Disintegrin and metalloproteinase domain-containing protein 17 (Homo sapiens, UniProt P78536); experiment: exosite inhibitors of ADAM17, dose response, biochemical (AID 743260)
[20] = ADAM10 protease inhibitors, dose response, selectivity assay for ADAM17 exosite inhibitor project, biochemical, FRET peptide substrate, recombinant human ADAM10 (AID 743259);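 note: ADAM10 enzyme cleaving a FRET peptide substrate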
[21] = Late-stage results from the probe development effort to identify antagonists of arginine vasopressin receptor 1a (AVPR1a): fluorescence-based cell-based dose response AVPR1a inhibition assay.; format: functional
Vasopressin V1b receptor = Vasopressin V1b receptor (Homo sapiens, UniProt P47901); experiment: Late-stage results from the probe development effort to identify antagonists of arginine vasopressin receptor 1a (AVPR1a): fluorescence-based cell-based dose response AVPR1b inhibition counterscreen assay.; format: functional
Vasopressin V2 receptor = Vasopressin V2 receptor (Homo sapiens, UniProt P30518); experiment: Late-stage results from the probe development effort to identify antagonists of arginine vasopressin receptor 1a (AVPR1a): fluorescence-based cell-based dose response AVPR2 inhibition counterscreen assay.; format: functional
[22] = Late-stage results from the probe development effort to identify antagonists of arginine vasopressin receptor 1a (AVPR1a): fluorescence-based cell-based dose response OXTR inhibition counterscreen assay.; format: functional
fMet-Leu-Phe receptor = fMet-Leu-Phe receptor (Homo sapiens, UniProt P21462); experiment: FPR ligands, dose response (AID 519); format: functional
[23] = ADAM10 inhibitors, peptide cleavage, dose response, biochemical, QFRET (AID 743254);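 note: ADAM10 enzyme with the DM2 quenched FRET peptide as substrate; EDANS fluorescence gain as the protease cuts the substrate; inhibitor potency against ADAM10 proteolytic activity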
[24] = molecular target: T2, Disintegrin and metalloproteinase domain-containing protein 17; experiment: ADAM17 protease inhibitors, dose response, counter-screen for ADAM10 exosite inhibitor project, biochemical, quenched FRET substrate (AID 743253)
[25] = inhibitors of HIV Env-driven cell fusion, dose response, cherry-pick (AID 652057); format: functional, cell-based
[26] = CEM21 lymphoblast cell cytotoxicity, dose response, cytotoxicity control for viral fusion inhibitor project, CellTiter-Glo luminescence, cherry-picked (AID 652042); format: functional, cell-based;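 note: potency for signal decrease meaning cytotoxicity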
[27] = off-target signal loss in HeLa-CEM21 co-culture – HeLa F-luc CTL cells, cherry-picked, counter-screen for HIV-1 Env fusion inhibitor project, dose response (AID 652040); format: functional, cell-based;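 note: potency for signal decrease marking cytotoxic or nonspecific inhibition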
[28] = inhibitors of clade B AD8 Env fusion, dose response, cell-based, cherry-pick (AID 652062); format: functional;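 note: luciferase signal from cell-cell fusion driven by HIV-1 clade B AD8 Env; potency is for inhibitors of fusion seen as a drop in luminescence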
[29] = HIV Env cell-cell fusion inhibitors, dose response, HIV entry, plate reader, dry powder (AID 687023); format: functional, cell-based
[30] = CEM21 cell cytotoxicity, dose response, cytotoxicity control, plate reader, dry powder (AID 687026); format: functional, cell-based
[31] = CTGF mRNA reduction under YAP1 overexpression, dose response, mechanism study for YAP1 pathway inhibitor project, DLD1 cells, RT-qPCR, cherry-pick (AID 1053127); format: functional, cell-based; conditions: DLD-1
[32] = molecular target: NAD-dependent protein deacylase sirtuin-5, mitochondrial (Homo sapiens, UniProt Q9NXA8); experiment: SIRT5 deacylase inhibitors, dose response, biochemical, fluorescence imaging, cherry-pick, set 6 (AID 720597)
Sequence of NAD-dependent protein deacylase sirtuin-5, mitochondrial (Q9NXA8 whole entry): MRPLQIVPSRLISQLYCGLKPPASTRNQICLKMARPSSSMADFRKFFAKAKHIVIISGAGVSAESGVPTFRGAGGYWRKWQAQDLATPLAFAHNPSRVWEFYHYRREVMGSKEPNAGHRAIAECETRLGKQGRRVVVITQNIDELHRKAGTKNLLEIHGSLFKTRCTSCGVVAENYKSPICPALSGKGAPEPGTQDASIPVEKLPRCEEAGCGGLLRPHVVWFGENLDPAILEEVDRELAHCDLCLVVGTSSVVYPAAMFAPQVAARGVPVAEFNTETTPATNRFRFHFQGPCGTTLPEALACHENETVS

T2 sequence (P78536 whole entry, the tested form may be a part): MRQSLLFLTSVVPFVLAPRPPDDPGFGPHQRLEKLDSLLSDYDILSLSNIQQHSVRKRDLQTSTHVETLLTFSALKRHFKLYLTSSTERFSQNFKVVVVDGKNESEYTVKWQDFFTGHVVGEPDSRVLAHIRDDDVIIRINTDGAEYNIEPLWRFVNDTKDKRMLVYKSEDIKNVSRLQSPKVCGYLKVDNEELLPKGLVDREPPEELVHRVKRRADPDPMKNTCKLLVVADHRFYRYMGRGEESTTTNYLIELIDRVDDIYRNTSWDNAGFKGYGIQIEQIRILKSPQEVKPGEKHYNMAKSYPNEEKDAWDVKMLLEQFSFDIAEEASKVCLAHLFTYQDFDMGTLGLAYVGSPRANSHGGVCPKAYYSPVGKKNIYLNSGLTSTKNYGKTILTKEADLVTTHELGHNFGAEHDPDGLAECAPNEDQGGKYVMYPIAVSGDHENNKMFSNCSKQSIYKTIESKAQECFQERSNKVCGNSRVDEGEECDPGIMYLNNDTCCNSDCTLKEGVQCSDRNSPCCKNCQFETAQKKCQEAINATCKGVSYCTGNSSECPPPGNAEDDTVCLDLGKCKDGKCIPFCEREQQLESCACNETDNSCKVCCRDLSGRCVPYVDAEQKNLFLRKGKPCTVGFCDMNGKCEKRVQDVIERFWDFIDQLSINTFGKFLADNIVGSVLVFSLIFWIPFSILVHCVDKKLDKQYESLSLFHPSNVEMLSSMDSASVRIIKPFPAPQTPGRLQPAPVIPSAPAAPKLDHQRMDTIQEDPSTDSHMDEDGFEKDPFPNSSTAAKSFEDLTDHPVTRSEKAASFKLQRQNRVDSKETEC
Sequence of 1-phosphatidylinositol 4,5-bisphosphate phosphodiesterase beta-3 (Q01970 whole entry, the tested form may be a part): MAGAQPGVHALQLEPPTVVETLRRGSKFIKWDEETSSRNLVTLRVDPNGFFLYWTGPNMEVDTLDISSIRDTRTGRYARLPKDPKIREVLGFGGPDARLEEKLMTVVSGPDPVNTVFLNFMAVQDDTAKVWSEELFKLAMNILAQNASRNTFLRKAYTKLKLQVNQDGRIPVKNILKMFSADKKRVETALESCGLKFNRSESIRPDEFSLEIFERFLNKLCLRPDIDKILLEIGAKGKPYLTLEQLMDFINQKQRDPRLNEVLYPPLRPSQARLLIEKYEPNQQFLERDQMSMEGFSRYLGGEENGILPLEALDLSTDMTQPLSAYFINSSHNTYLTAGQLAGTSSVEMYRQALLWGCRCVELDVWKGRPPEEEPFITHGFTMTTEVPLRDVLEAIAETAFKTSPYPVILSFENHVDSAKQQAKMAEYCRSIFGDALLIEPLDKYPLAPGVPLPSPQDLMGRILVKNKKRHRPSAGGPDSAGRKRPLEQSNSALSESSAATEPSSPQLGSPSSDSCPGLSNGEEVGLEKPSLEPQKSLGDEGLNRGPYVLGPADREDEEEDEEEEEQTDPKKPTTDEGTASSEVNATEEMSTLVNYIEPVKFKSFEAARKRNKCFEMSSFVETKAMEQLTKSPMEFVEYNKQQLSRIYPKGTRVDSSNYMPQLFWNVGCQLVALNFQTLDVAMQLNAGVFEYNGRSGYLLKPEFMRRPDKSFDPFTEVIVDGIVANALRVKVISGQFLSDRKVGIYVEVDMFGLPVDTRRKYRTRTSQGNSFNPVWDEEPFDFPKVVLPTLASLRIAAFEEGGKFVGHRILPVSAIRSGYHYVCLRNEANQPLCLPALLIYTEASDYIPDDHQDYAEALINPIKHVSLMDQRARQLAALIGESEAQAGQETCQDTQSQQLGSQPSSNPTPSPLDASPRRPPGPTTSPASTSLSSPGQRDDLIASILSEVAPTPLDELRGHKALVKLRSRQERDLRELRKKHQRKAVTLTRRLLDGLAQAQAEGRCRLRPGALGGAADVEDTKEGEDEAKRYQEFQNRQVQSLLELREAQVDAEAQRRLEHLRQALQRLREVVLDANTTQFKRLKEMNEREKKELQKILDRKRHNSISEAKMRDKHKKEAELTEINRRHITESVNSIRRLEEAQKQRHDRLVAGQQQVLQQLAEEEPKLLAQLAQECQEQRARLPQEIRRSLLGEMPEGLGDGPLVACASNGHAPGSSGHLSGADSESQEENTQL
Sequence of fMet-Leu-Phe receptor (P21462 whole entry): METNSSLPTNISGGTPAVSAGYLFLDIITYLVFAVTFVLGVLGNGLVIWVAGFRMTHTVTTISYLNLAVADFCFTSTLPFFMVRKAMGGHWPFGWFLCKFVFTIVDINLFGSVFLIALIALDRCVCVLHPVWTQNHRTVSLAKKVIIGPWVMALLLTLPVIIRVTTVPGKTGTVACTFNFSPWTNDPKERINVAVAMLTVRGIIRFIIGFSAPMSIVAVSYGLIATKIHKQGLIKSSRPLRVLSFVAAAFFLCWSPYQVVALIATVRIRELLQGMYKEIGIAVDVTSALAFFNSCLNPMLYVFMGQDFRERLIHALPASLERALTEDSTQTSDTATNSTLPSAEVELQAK
Sequence of Acyl-protein thioesterase 1 (O75608 whole entry): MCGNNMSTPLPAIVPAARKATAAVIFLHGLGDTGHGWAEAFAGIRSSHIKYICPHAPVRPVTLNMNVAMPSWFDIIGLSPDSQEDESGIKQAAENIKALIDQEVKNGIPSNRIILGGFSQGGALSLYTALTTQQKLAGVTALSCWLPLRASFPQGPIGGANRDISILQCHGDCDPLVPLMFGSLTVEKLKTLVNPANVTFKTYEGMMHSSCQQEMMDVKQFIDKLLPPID
Sequence of Vasopressin V1b receptor (P47901 whole entry): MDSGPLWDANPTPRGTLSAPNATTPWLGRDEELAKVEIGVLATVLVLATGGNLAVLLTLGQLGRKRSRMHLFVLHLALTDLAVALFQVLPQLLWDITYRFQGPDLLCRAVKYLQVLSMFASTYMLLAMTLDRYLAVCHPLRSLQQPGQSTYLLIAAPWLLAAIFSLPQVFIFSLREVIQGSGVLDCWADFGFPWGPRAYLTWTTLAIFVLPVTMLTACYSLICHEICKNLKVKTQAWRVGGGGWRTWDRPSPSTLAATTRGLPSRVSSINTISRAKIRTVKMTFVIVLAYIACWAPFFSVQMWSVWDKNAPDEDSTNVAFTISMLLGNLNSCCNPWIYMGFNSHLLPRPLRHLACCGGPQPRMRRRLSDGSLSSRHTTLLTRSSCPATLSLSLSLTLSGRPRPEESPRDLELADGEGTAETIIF
Sequence of Vasopressin V2 receptor (P30518 whole entry): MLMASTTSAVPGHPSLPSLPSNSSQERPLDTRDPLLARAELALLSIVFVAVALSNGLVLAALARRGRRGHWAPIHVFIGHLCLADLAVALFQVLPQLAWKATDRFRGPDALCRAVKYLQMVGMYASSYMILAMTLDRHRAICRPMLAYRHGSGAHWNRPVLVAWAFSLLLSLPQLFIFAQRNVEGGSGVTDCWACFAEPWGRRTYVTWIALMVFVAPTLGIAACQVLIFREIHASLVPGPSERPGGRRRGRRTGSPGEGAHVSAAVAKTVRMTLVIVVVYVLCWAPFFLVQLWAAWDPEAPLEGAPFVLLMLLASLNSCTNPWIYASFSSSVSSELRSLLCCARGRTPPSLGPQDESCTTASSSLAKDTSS
Sequence of Potassium channel subfamily K member 3 (O14649 whole entry): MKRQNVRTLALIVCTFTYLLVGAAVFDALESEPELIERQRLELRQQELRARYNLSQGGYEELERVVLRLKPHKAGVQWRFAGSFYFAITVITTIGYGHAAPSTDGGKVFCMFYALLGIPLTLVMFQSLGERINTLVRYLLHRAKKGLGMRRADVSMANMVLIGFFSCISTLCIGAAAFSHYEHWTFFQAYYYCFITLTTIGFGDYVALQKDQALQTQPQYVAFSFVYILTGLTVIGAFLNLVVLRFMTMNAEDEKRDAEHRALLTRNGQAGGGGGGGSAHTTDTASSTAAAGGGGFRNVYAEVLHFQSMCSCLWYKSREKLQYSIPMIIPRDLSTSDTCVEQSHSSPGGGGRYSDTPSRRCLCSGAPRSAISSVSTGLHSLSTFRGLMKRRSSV

CO[C@@H]1CN(C)C(=O)c2cc(NC(=O)Nc3cc(Cl)cc(Cl)c3)ccc2OC[C@H](C)NC[C@H]1C
AC50 [1]: 10.1 µM (active)
AC50 [2]: 10.9 µM (active)
AC50 [3]: 17.6 µM (active)
AC50 [4]: 12.8 µM (active)
AC50 [5]: 29 µM (active)

Cn1c(O)c(N=NC(=O)c2ccco2)c2ccccc21
EC50 [6]: > 67.5 µM (inactive)

CCOc1ccc(NC(=O)c2cccc(NC(=O)C3CCCC3)c2)cc1
IC50 [7]: 0.07 µM (active)

COc1ccc(N2CCN(C(=O)c3cc4c(s3)-c3ccccc3S(=O)(=O)C4)CC2)cc1
EC50 [8]: > 50 µM (active)
IC50 [9]: > 10 µM (inactive)

C[C@H]1CN([C@@H](C)CO)S(=O)(=O)c2ccc(Br)cc2O[C@@H]1CN(C)S(=O)(=O)c1ccccc1F
AC50 (HEK293): 15.7 µM (active)
AC50 [10]: 15.7 µM (active)

Fc1ccc(-c2nc3ccccn3c2NCc2ccc3c(c2)OCO3)cc1
AC50 (cells): > 52 µM (inactive)

O=C(NCc1ccccc1)c1ccc(-c2cn[nH]c2)c2ccoc12
AC50 [11]: > 52 µM (inactive)
AC50 [5]: 0.142 µM (active)

CNc1ccccc1C(C)(C)c1cc(-c2cccc(OC)c2)no1
AC50 [12]: 1.92 µM (active)
AC50 [13]: 56.8 µM (active)
AC50 [14]: 9.49 µM (active)
IC50 [15]: > 80 µM (inactive)
AC50 [16]: 1.82 µM (active)

COc1cccc(C(=O)Nc2ccc(-n3nncc3C(C)(C)C)cc2)c1
IC50 [17]: > 122 µM (inactive)
IC50 [18]: > 122 µM (inactive)

CCOc1ccc(CNC(=S)N/N=C/c2ccc(OC)c(OC)c2)cc1
IC50 [19]: > 69.5 µM (inactive)
IC50 [20]: > 69.5 µM (inactive)

COc1ccc(N(CC2CC2)C(=O)N2CCN(c3ccccc3C(F)(F)F)CC2)cc1
IC50 [21]: 0.0588 µM (active)
IC50 (Vasopressin V1b receptor): 17.9 µM (inactive)
IC50 (Vasopressin V2 receptor): 8.41 µM (active)
IC50 [22]: 0.12 µM (active)

CCN(CCCc1ccccc1)CCCc1ccccc1 [ALVERINE CITRATE]
Ki (fMet-Leu-Phe receptor): > 66.7 µM (inactive)

COc1ccc(-c2[nH]nc(C)c2-c2cnn(-c3ccccc3)c2)c(O)c1C
IC50 [23]: > 7.72 µM (active)
IC50 [24]: > 69.5 µM (inactive)

CC(=O)Nc1ccc(NC(=O)CN(c2ccc(C34CC5CC(CC(C5)C3)C4)cc2)S(C)(=O)=O)cc1
AC50 [25]: 2.87 µM (active)
AC50 [26]: 57.7 µM (active)
AC50 [27]: > 70 µM (inactive)
AC50 [28]: 5.78 µM (active)
AC50 [29]: 7.68 µM (active) and 9 µM (active)
AC50 [30]: 50.4 µM (active)

CS(=O)(=O)N1CC(=O)N2[C@H](C1)[C@@H](c1ccc(C#Cc3ccc(F)cc3)cc1)[C@@H]2CO
AC50 [31]: > 26 µM (inactive)

Cc1ccc(S(=O)(=O)N(C)C[C@H]2OCCCC[C@H](C)Oc3ccc(NS(=O)(=O)c4ccc(F)cc4)cc3C(=O)N([C@@H](C)CO)C[C@H]2C)cc1
AC50 [32]: > 30 µM (inactive)
